Experiments:
[1] = Microsomal clearance assay; format: in vitro ADME, rat
Experimental: Library compounds were tested in triplicate at a concentration of 2 μM and incubated in 0.1 M potassium phosphate buffer containing 12 mM MgCl2 and 8 mM NADPH at pH 7.4 with either 0.5 mg/mL of Sprague–Dawley liver microsomes (Invitrogen). Samples were incubated for 0, 3, 7, 12, 20, and 30 minutes. At the designated time point, the incubation reaction was stopped by adding 100 μL of ACN containing 1 μM of either GaSal-4 or GaSal-5 as the internal standards. […] 7-Ethoxycoumarin (Sigma) was used as a positive control in this experiment. Intrinsic clearance (CLint) was calculated using eq. 2:(2) CLint=0.693/InVitroT1/2∗IncubationVolume/mgofmicrosomes∗45mgmicrosomes/gramofliver∗45gramsliver/kgofbodyweight
The average CLint ± SEM was determined for each compound for 2 replicates per time point.

HasA = HasA (Pseudomonas aeruginosa, UniProt G3XD33); experiment: Kd determination by fluorescence quenching of apo-HasAp; conditions: read-out: HasA Kd; apo-HasAp 1 μM, 20 mM sodium phosphate pH 7.4, 25 °C, one-site binding fit
Experimental: Wild-type, full-length HasAp was prepared from freshly transformed Escherichia coli BL21(DE3) competent cells as previously described in 4 L of M9 media. Cell pellets were resuspended and lysed with an LM-20 microfluidizer at 18,000 psi. Lysate was clarified by centrifugation and applied to a Q-Sepharose column. HasAp was eluted over a gradient from 20 to 600 mM NaCl in 20 mM Tris-HCl (pH 7.5), and desired fractions determined by SDS-PAGE were pooled. Apo-HasAp was further purified on a Butyl Sepharose Fast Flow column equilibrated with 50 mM sodium phosphate buffer with 0.7 M ammonium sulfate (pH 7.0). Holo-HasAp and other proteins eluted within 2–3 bed volumes of 50 mM sodium phosphate containing 0.5 M ammonium sulfate. Apo-HasAp was then eluted with a linear gradient of sodium phosphate buffer (50–20 mM) containing ammonium sulfate (0.5–0 M). Fractions were analyzed again by SDS-PAGE, and the apo-HasAp was pooled, concentrated (Amicon stirred cell with Ultracel 10 kDa filter), and exchanged into 20 mM sodium phosphate buffer.
Binding affinities were determined using a BioTek Synergy H1 microplate reader in a black 96-well plate. Compounds were solvated in H2O in serial dilutions (100–0.39 μM). One micromolar solution of apo-HasAp 20 mM sodium phosphate buffer (pH 7.4, 25 °C) was titrated into the ligand of interest. Emission spectra were recorded (300–500 nm) after excitation at 280 nm. The decrease in maximum emission was plotted against the ligand concentration (accounting for dilution) and fit to one-site binding using GraphPad Prism v10.

S9 clearance assay = format: in vitro ADME; conditions: average ± SEM n = 3; for CLint scaled: S9 rat liver fraction, 2 μM, read-out: Predicted CLint (converted); for half-life at 2 µM: pH 7.4, S9 rat liver fraction
Experimental: Select library compounds were tested in triplicate at a concentration of 2 μM and incubated in 0.1 M potassium phosphate buffer containing 12 mM MgCl2 and 8 mM NADPH at pH 7.4 with 2.5 mg/mL of Sprague–Dawley S9 (Invitrogen). Incubations contained a final concentration of 2.5 mM UDP glucuronic acid, 0.10 mM adenosine 3’-phosphate 5’-phosphosulfate, 0.5 mM acetyl CoA, and 50 μg/mg protein alamethicin. All co-factors were from Sigma. Samples were incubated for 0, 3, 7, 12, 20, and 30 minutes. At the designated time point, the incubation reaction was stopped by adding 100 μL of ACN containing 1 μM of either GaSal-4 or GaSal-5 as the internal standard. […] A hundred microliter of supernatant was taken for LC-MS/MS analysis. 7-Ethoxycoumarin (Sigma) was used as a positive control in this experiment. Clearance was calculated according to eq. 3:(3) CLint=0.693/InVitroT1/2∗IncubationVolume/mgofS9∗165mgS9/gramofliver∗45gramsliver/kgofbodyweight
The average CLint ± SEM was determined for each compound for 3 replicates per time point.

CYP = experiment: 7-Ethoxycoumarin metabolism in microsomes in the presence of GaSal analogs (possible CYP inhibition); format: in vitro ADME, rat; conditions: co-incubation with 7-ethoxycoumarin

Sequence of HasA (G3XD33 entry or part of it): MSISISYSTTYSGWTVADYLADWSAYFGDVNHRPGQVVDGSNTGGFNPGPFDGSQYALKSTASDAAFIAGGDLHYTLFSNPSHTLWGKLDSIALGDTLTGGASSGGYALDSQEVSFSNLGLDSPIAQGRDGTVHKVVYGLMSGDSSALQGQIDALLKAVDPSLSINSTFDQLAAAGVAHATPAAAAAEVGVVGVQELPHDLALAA

Row | SMILES | decrease in peak area over time ([1]; rat liver microsomes, 30-minute period) [%] | Kd (HasA) [nM] | CLint scaled (S9 clearance assay) [mL/min/kg] | half-life at 2 µM (S9 clearance assay) [h] | CLint scaled ([1]; 2 μM, 0.5 mg/mL rat liver microsomes, NADPH, 30 min, read-out: experimental CLint (microsomes)) [mL/min/kg] | 7-ethoxycoumarin metabolism when co-incubated (possible CYP inhibition) (CYP)
1 | Oc1cc(OCCN2CCOCC2)ccc1C=Nc1ccccc1N=Cc1ccc(OCCN2CCOCC2)cc1O.[Ga+3] [GaSal-3] | < 10 | 1500 ± 300 | 30.2 | 2.67 ± 1.21 | – | –
2 | COCCOc1ccc(/C=N/c2ccccc2N=C(C)c2ccccc2O)c(O)c1.[Ga+3] [GaSal-14] | – | 2840 ± 120 | – | – | – | –
3 | COCCOc1ccc(/C=N/c2ccccc2/N=C/c2ccc(OCCOC)cc2O)c(O)c1.[Ga+3] [GaSal-13] | – | 960 ± 140 | – | – | – | –
4 | COCCOCCOc1ccc(C=Nc2ccccc2N=Cc2ccc(OCCOCCOC)cc2O)c(O)c1.[Ga+3] [GaSal-5] | – | 2500 ± 1200 | 27.8 | 2.88 ± 3.37 | – | –
5 | Oc1ccccc1/C=N/c1ccccc1/N=C/c1ccccc1O.[Ga+3] [GaSal, gallium salophen] | – | 800 ± 100 | 136 | 0.59 ± 0.15 | 21.3 to 63 | CYP inhibition
6 | O=C(O)CCOc1ccc(C=Nc2ccccc2N=Cc2ccc(OCCC(=O)O)cc2O)c(O)c1.[Ga+3] [GaSal-4] | – | 1100 ± 100 | 398 | 0.2 ± 0.1 | – | –

Source: PMC12264554, “Application of preclinical absorption, distribution, metabolism, elimination in vitro techniques for the characterization and compound library optimization of novel antibiotic gallium salophen” (Drug Metabolism and Disposition, 2025)
